{"source": "paper PMC7551591", "about": "“The Effect of Resveratrol or Curcumin on Head and Neck Cancer Cells Sensitivity to the Cytotoxic Effects of Cisplatin” (Nutrients, 2020)", "assay_type_in_all_cases": "cell-based, human", "key": {"PE/CA-PJ49 tumor cells [1]": {"tested_on": "PE/CA-PJ49 tumor cells", "test": "MTT drug sensitivity (viability) assay, tumor cells", "details": "24 h; for IC50: Homo sapiens; for IC50 / IC 25: MTT; for Selectivity Index (SI): IC50 in HUVEC / IC50 in PE/CA-PJ49", "protocol": "(§1) The MTT assay is based on the ability of viable cells to reduce the reagent 3-(4,5-dimethylthiazol-2-yl)-2,5-diphenyltetrazolium bromide to colored formazan compounds [48]. Because the transformation is only possible in viable cells, the amount of blue formazan is proportional to the number of viable cells and thus, a linear dependence exists between cell activity and absorbance. Cells were seeded in triplicate in 96-well plates at a density of 5000 cells/well, incubated at 37 °C for 24 h. […] After the incubation period, 20 μL MTT (5 mg/mL in PBS) was added and further incubated for 4 h. The supernatant was removed, and the formazan product was analyzed spectrophotometrically (570 nm) after dissolution in DMSO. Wells without cells serve as a blank, and their absorbance was subtracted from the other results. Untreated cells were used as control and their viability was assumed as 100%. Results were expressed as mean values of three determinations ± standard deviation (SD). Data are presented as percent of cell viability and compared to untreated [Viability% = (T − B)/(U − B) × 100, {where T = absorbance of treated cells; U = absorbance of untreated cells, B = absorbance of blank}]. Once percent viability was obtained, the drug response curve was generated, and inhibitory concentration (IC50 and IC25) was calculated using GraphPad Prism version 5.01 [49].\n(§2) SI values of more than 2 were considered as indicative of high selectivity.\n(§3) The anticancer cytotoxic activity in vitro was evaluated by the MTT assay. […] The most widely used and informative measure of a drug’s efficacy is IC50-the half-maximal inhibitory concentration. IC50 was determined at half of the difference between the maximum (plateau) and minimum absorbance values, by plotting the absorbance value at 570 nm (Y axis) versus the concentration of the compound analysed (X axis). The IC50 values were reported as a mean of three independent experiments ± standard deviation (S.D.)."}, "HUVEC normal cells [2]": {"tested_on": "HUVEC normal cells", "test": "MTT drug sensitivity (viability) assay, normal cells", "details": "24 h; for IC 25 / IC50: MTT; for IC50: Homo sapiens", "protocol": "as §1, §2, §3"}, "[3]": {"tested_on": "p21 protein (CIP1/CDKN1A) expression in PE/CA-PJ49", "test": "Total p21 protein ELISA in cell lysates, tumor cells", "details": "24 h; for n-fold p21 Protein Expression PE/CA-PJ49: vs control", "protocol": "After incubation, cells were washed twice with ice-cold PBS, scraped, pelleted and lysed in RIPA buffer (Pierce) supplemented with protease inhibitor cocktail (Roche) and phosphatase inhibitor (Roche) for 30 min on ice. The lysates were transfered into microcentrifuge tubes and centrifuged at 14,000× g for 5 min at 4 °C followed by sonication (10–15 s × 3). The supernatants were collected into clean microcentrifuge tubes and stored at −80 °C. Lysates protein concentration were quantified by BCA protein assay kit (Thermo Scientific) and aliquots of 50 μg of total cell lysate were used for ELISA assay.\nDuoSetR IC ELISA-Human Total p21/CIP1/CDKN1A(: DYC1047-2) was purchased from R&D Systems Inc. and contains the basic components required for the development of sandwich ELISAs to measure human p21 protein also known as CIP1 and CDKN1A in cell lysates. An immobilized capture antibody specifically binds human p21. After washing away unbound material, a biotinylated detection antibody specific for human p21 is used to detect the captured protein, utilizing a standard Streptavidin-HRP format. All experiments were performed in triplicates and absorbance was measured at λ = 450 nm using a Dynex plate reader.\nIn cancer development and evolution p21 protein might acts as an oncogene or tumor suppressor and for this reason it could be an important player in processes such as the cancer aggressiveness or the response to chemotherapy. In this study, using ELISA assay we analyzed the expression level of p21 in the tumor cells (PE-CA/PJ49) compared to a normal cells (HUVEC)."}, "PE/CA-PJ49 tumor cells [4]": {"tested_on": "PE/CA-PJ49 tumor cells", "test": "Annexin V-FITC/PI apoptosis flow cytometry, tumor cells", "details": "24 h", "protocol": "(§4) The apoptosis assay was carried out with the Annexin V-FITC kit using the manufacturer’s (BD Pharmingen) protocol. Treated and untreated 1 × 10^6 cells/mL were resuspended in cold binding buffer and staining simultaneously with 5 μL FITC-Annexin V (green fluorescence) and 5 μL propidium iodide (PI) in the dark, at room temperature for 15 min. Then, 400μL of Annexin V binding buffer was added and 10,000 cells/sample were acquired using a BD Canto II flow cytometer. The analysis was performed using DIVA 6.2 software in order to discriminate viable cells (FITC^−PI^−) from necrotic cells […] and early apoptosis (FITC^+PI^−) from late apoptosis.\n(§5) Apoptosis can be seen as an efficient method of preventing malignant transformation, as it ensures the removal of cells which present with genetic alterations. Deficient apoptosis can promote the development of cancer, both through the accumulation of cells found during division and the blocking of the removal of cells with high malignant potential genetic variations. The factors which determine the cells to follow one of three possible pathways are not yet known – the start of apoptosis after cellular injury, the repair of the lesion or the continuation of the cellular cycle. Many therapeutical agents have anti-tumoral effects generated by their capacity to activate the apoptotic process. […] The flow cytometric analysis was performed using DIVA 6.2 software and allowed to discriminate viable cells (FITC^−PI^− = Q3) from necrotic cells (FITC^−PI^+ = Q1) and early apoptosis (FITC^+PI^− = Q4) from late apoptosis (FITC^+PI^+ = Q2)."}, "[5]": {"test": "Annexin V-FITC/PI apoptosis flow cytometry, normal cells", "details": "human, HUVEC normal cells, read-out: Q3 (viable cells, FITC−PI−)", "protocol": "as §4, §5"}, "HUVEC normal cells [6]": {"tested_on": "HUVEC normal cells", "test": "Annexin V-FITC/PI apoptosis flow cytometry, normal cells", "details": "24 h; for Apoptoza Tarzie = Q2 (%): late apoptosis; for Apoptoza Totală = Q2+Q4 (%): total apoptosis", "protocol": "as §4, §5"}, "PE/CA-PJ49 tumor cells [7]": {"tested_on": "PE/CA-PJ49 tumor cells", "test": "MTS cell proliferation assay (CellTiter 96), tumor cells", "details": "24 h, PE/CA-PJ49 vs HUVEC", "source_text": "In order to determine the effect of CRM or RSV on proliferative activity of cisplatin treated cells was used the Promega CellTiter 96® AQueous One Solution Cell Proliferation Assay, a test that is based on the reduction of yellow MTS tetrazolium salt by the viable cells and generation of colored formazan soluble in the culture medium. The product was spectrophotometrically quantified by measuring the absorbance at λ = 490 nm using a Dynex plate reader (DYNEX Technologies-MRS, Chantilly, VA, USA). Results were expressed as mean values of three determinations ± standard deviation (SD). Untreated cells served as control and considered to have a proliferation index (PI = absorbance of treated cells/absorbance of untreated cells) equal to 1."}}, "data": [{"smiles": "COc1cc(/C=C/C(=O)CC(=O)/C=C/c2ccc(O)c(OC)c2)ccc1O", "note": "[CRM, Curcumin]", "values": [{"measurement": "cell viability (MTT)", "setting": "PE/CA-PJ49 tumor cells [1]; 15 μM CRM, PE/CA-PJ49 vs HUVEC", "value": "reduced tumor cell viability compared to normal cells HUVEC"}, {"measurement": "IC50", "setting": "PE/CA-PJ49 tumor cells [1]; PE/CA-PJ49", "value": "16.3 ± 3.4", "unit": "µM"}, {"measurement": "Selectivity Index (SI)", "setting": "PE/CA-PJ49 tumor cells [1]", "value": 3.66}, {"measurement": "IC 25", "setting": "PE/CA-PJ49 tumor cells [1]; PE/CA-PJ49", "value": "7.9 ± 1.8", "unit": "µM"}, {"measurement": "IC 25", "setting": "HUVEC normal cells [2]", "value": "19.2 ± 2.1", "unit": "µM"}, {"measurement": "IC50", "setting": "HUVEC normal cells [2]", "value": "59.3 ± 6.1", "unit": "µM"}, {"measurement": "p21 pg/mL PE/CA-PJ49", "setting": "[3]; 15 μM CRM", "value": 941, "unit": "pg/mL"}, {"measurement": "n-fold p21 Protein Expression PE/CA-PJ49", "setting": "[3]; 15 μM CRM", "value": 1.51}, {"measurement": "Early Apoptosis = Q4 (%)", "setting": "PE/CA-PJ49 tumor cells [4]; 15 μM CRM", "value": 19.1, "unit": "%"}, {"measurement": "Late Apoptosis = Q2 (%)", "setting": "PE/CA-PJ49 tumor cells [4]; 15 μM CRM", "value": 9.1, "unit": "%"}, {"measurement": "Necrosis = Q1 (%)", "setting": "PE/CA-PJ49 tumor cells [4]; 15 μM CRM", "value": 6.7, "unit": "%"}, {"measurement": "Total Apoptosis = Q2 + Q4 (%)", "setting": "PE/CA-PJ49 tumor cells [4]; 15 μM CRM", "value": 28.2, "unit": "%"}, {"measurement": "viability at 15 µM", "setting": "PE/CA-PJ49 tumor cells [4]; Homo sapiens, 15 μM CRM, read-out: Q3 (viable cells, FITC−PI−)", "value": 65.1, "unit": "%"}, {"measurement": "viability at 24 h, 15 μM", "setting": "[5]; 15 μM CRM", "value": 90.2, "unit": "%"}, {"measurement": "Early Apoptosis = Q4 (%)", "setting": "HUVEC normal cells [6]; 15 μM CRM", "value": 6.7, "unit": "%"}, {"measurement": "Necrosis = Q1 (%)", "setting": "HUVEC normal cells [6]; 15 μM CRM", "value": 2.6, "unit": "%"}, {"measurement": "Apoptoza Tarzie = Q2 (%)", "setting": "HUVEC normal cells [6]; 15 μM CRM", "value": 0.5, "unit": "%"}, {"measurement": "Apoptoza Totală = Q2+Q4 (%)", "setting": "HUVEC normal cells [6]; 15 μM CRM", "value": 7.2, "unit": "%"}, {"measurement": "proliferative process (IP)", "setting": "PE/CA-PJ49 tumor cells [7]; 15 μM CRM", "value": "much more intense decrease of the proliferative process"}]}, {"smiles": "Oc1ccc(C=Cc2cc(O)cc(O)c2)cc1", "note": "[RSV, 3,5,4′-trihydroxystilbene]", "values": [{"measurement": "IC50", "setting": "PE/CA-PJ49 tumor cells [1]; PE/CA-PJ49", "value": "46.8 ± 2.6", "unit": "µM"}, {"measurement": "Selectivity Index (SI)", "setting": "PE/CA-PJ49 tumor cells [1]", "value": 2.36}, {"measurement": "IC 25", "setting": "PE/CA-PJ49 tumor cells [1]; PE/CA-PJ49", "value": "17.6 ± 1.5", "unit": "µM"}, {"measurement": "cell viability (MTT)", "setting": "PE/CA-PJ49 tumor cells [1]; PE/CA-PJ49, RSV 40 μM vs untreated cells", "value": "significantly affected"}, {"measurement": "IC 25", "setting": "HUVEC normal cells [2]", "value": "40.6 ± 3.3", "unit": "µM"}, {"measurement": "cell viability (MTT)", "setting": "HUVEC normal cells [2]; RSV 40 μM vs untreated cells", "value": "significantly affected"}, {"measurement": "IC50", "setting": "HUVEC normal cells [2]", "value": "110 ± 8.6", "unit": "µM"}, {"measurement": "p21 pg/mL PE/CA-PJ49", "setting": "[3]; 40 μM RSV", "value": 1550, "unit": "pg/mL"}, {"measurement": "n-fold p21 Protein Expression PE/CA-PJ49", "setting": "[3]; 40 μM RSV", "value": 2.48}, {"measurement": "Early Apoptosis = Q4 (%)", "setting": "PE/CA-PJ49 tumor cells [4]; 40 μM RSV", "value": 17.7, "unit": "%"}, {"measurement": "Late Apoptosis = Q2 (%)", "setting": "PE/CA-PJ49 tumor cells [4]; 40 μM RSV", "value": 9.5, "unit": "%"}, {"measurement": "Necrosis = Q1 (%)", "setting": "PE/CA-PJ49 tumor cells [4]; 40 μM RSV", "value": 5.4, "unit": "%"}, {"measurement": "Total Apoptosis = Q2 + Q4 (%)", "setting": "PE/CA-PJ49 tumor cells [4]; 40 μM RSV", "value": 27.2, "unit": "%"}, {"measurement": "viability at 40 µM", "setting": "PE/CA-PJ49 tumor cells [4]; Homo sapiens, 40 μM RSV, read-out: Q3 (viable cells, FITC−PI−)", "value": 67.4, "unit": "%"}, {"measurement": "viability at 24 h, 40 μM", "setting": "[5]; 40 μM RSV", "value": 93.7, "unit": "%"}, {"measurement": "Early Apoptosis = Q4 (%)", "setting": "HUVEC normal cells [6]; 40 μM RSV", "value": 4.8, "unit": "%"}, {"measurement": "Necrosis = Q1 (%)", "setting": "HUVEC normal cells [6]; 40 μM RSV", "value": 1.2, "unit": "%"}, {"measurement": "Apoptoza Tarzie = Q2 (%)", "setting": "HUVEC normal cells [6]; 40 μM RSV", "value": 0.3, "unit": "%"}, {"measurement": "Apoptoza Totală = Q2+Q4 (%)", "setting": "HUVEC normal cells [6]; 40 μM RSV", "value": 5.1, "unit": "%"}, {"measurement": "proliferation (index proliferation, IP)", "setting": "PE/CA-PJ49 tumor cells [7]; 40 μM RSV", "value": "affected the proliferation of tumor cells PE/CA-PJ49 much more than the one of normal cells HUVEC"}]}]}
